Legend:
CYP2C9 = details: 20 μM test substance, 5 μM substrate
CYP3A4 = tested on: T1, CYP3A4; test: CYP3A4 assay (testosterone hydroxylation), CypExpress human kit; type: biochemical; details: 20 μM, 5 μM substrate
T1 construct: purchased Merck (Darmstadt, Germany)

[1] = tested on: T2, human serum albumin (HSA); parameters: method as in PMID 30562928, PMID 28135601; details: same experimental conditions; cited from earlier work
T2 construct: purchased Merck (Darmstadt, Germany) A1653

OATP1B1 [2] = target: T3, OATP1B1 (Homo sapiens, UniProt Q9Y6L6); test: Uptake of flavonoids by A431-OATP1B1 versus mock cells (APB fluorescence); type: cell-based; details: BSP 20 μM, M3′S 2 μM, 2 min
T3 construct: expressed in transfected cells; host or cells: A431
T3 sequence (Q9Y6L6 1-691): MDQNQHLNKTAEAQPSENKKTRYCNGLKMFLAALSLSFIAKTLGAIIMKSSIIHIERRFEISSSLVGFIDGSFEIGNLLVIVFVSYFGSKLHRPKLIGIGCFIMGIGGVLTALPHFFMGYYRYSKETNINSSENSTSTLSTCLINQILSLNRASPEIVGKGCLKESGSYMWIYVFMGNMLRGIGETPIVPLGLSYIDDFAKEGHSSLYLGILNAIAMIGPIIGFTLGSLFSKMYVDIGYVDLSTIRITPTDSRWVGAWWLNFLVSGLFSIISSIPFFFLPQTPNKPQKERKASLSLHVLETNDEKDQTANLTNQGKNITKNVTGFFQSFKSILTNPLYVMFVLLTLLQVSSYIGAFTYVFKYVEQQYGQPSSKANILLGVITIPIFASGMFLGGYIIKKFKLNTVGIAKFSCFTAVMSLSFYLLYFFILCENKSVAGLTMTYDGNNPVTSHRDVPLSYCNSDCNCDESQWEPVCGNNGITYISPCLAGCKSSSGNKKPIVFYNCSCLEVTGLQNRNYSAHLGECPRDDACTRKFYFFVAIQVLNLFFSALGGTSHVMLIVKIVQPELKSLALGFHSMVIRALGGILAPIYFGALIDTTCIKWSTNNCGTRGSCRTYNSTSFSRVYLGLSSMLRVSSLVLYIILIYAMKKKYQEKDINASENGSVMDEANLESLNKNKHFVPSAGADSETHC
Description: (§1) Direct uptake of AMP, MYR, and their sulfate metabolites were examined in A431 cells overexpressing OATP1B1 or OATP2B1, and in their mock‐transfected controls using APB as a fluorescence enhancer. One day before the uptake measurements, the cells were seeded onto 96‐well plates at a density of 80 000 cells/well in DMEM (200 μL). The following day, the cell culture medium was removed, and the cells were rinsed thrice with PBS (200 μL). Thereafter, the cells were preincubated with HBSS (50 μL) for 5 min at 37°C. The uptake reaction was initiated by the addition of a further 50 μL of HBSS containing AMP, MYR, or their sulfate conjugates (10 μM). After incubating for 15 min at 37°C, the reaction was stopped by removing the supernatant and rinsing the cells three times with ice‐cold PBS. Then PBS buffer (200 μL) containing APB (250 μg/mL) and BSA (1 mg/mL) was added to each well.[35] The fluorescence was read using an Enspire plate reader using the wavelengths listed in Section 2.7.
(§2) The concentration‐dependent uptake of M3′S was also tested under the same conditions, except the cells were incubated with 0–10 μM M3′S for 2 min (OATP1B1) or 5 min (OATP2B1).
(§3) To test the effect of BSP (a known inhibitor of OATPs[44]) on the cellular uptake of M3′S, cells were preincubated with HBSS buffer (50 μL) with or without BSP (20 μM) for 5 min at 37°C. Thereafter, we added 50 μL of HBSS containing M3′S (final concentration: 2 μM), and cells were further incubated at 37°C for 2 min (OATP1B1) or 5 min (OATP2B1). The reaction was stopped by removing the supernatant. After washing the cells with ice‐cold PBS, a PBS buffer with APB/BSA was added. Fluorescence was determined by applying an Enspire plate reader at excitation/emission wavelengths of 480/540 nm.

OATP2B1 [3] = target: T4, OATP2B1 (Homo sapiens, UniProt O94956); parameters: method as in PMID 32661014; details: positive control, same experimental model; cited from earlier work
T4 construct: expressed in transfected cells; host or cells: A431
T4 sequence (O94956 1-709): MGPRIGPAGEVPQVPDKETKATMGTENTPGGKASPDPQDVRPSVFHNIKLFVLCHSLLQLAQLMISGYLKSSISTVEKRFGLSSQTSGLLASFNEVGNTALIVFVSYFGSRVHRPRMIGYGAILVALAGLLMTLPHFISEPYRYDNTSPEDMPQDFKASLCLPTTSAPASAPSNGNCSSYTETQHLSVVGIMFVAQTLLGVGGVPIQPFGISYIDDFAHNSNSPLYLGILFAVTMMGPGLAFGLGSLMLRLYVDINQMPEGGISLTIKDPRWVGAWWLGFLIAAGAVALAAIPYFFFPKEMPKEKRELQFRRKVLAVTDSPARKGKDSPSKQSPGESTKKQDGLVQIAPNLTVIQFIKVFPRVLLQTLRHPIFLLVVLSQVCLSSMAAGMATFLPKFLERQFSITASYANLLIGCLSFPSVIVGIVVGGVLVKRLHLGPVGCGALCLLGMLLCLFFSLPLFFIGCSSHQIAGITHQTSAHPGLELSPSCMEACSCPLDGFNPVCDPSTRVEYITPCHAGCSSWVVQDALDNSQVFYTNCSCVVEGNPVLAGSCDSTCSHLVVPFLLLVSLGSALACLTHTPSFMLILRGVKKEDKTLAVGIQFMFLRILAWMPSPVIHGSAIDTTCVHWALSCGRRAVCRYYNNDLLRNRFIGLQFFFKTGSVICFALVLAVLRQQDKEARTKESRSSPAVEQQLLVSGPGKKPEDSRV

OATP2B1 [4] = target: T4, OATP2B1; test: Uptake of flavonoids by A431-OATP2B1 versus mock cells (APB fluorescence); type: cell-based; details: BSP 20 μM, M3′S 2 μM, 5 min
Description: as §1, §2, §3

OATP1B1 [5] = target: T3, OATP1B1; parameters: method as in PMID 32661014; details: positive control, same experimental model; cited from earlier work

Nc1ccc(S(=O)(=O)Nc2ccnn2-c2ccccc2)cc1 [sulfaphenazole]
effect on CYP2C9‐catalyzed diclofenac hydroxylation (metabolite formation) (CYP2C9): marked decreases in metabolite formation

CC(=O)N1CCN(c2ccc(OCC3COC(Cn4ccnc4)(c4ccc(Cl)cc4Cl)O3)cc2)CC1 (centres unmarked) [ketoconazole]
effect on CYP3A4 metabolite formation (CYP3A4): marked decreases in metabolite formation

O=c1cc(-c2ccccc2)oc2cc(OS(=O)(=O)O)cc(O)c12 [chrysin‐7‐sulfate]
displacement of the site marker warfarin from HSA [1]: almost completely displaced the site marker

O=c1c(O)c(-c2ccc(O)c(OS(=O)(=O)O)c2)oc2cc(O)cc(O)c12 [quercetin‐3′‐sulfate]
displacement of the site marker warfarin from HSA [1]: almost completely displaced the site marker

O=C1OC(c2ccc(O)c(S(=O)(=O)O)c2)(c2ccc(O)c(S(=O)(=O)O)c2)c2c(Br)c(Br)c(Br)c(Br)c21 [BSP, bromosulfophthalein, reference compound]
effect on uptake of M3′S into OATP1B1‐overexpressing cells (OATP1B1 [2]): considerably decreased the uptake of M3′S
IC50 (OATP2B1 [3]): 1300 nM
effect on uptake of M3′S into OATP2B1‐overexpressing cells (OATP2B1 [4]): considerably decreased the uptake of M3′S
IC50 (OATP1B1 [5]): 60 nM
